Our source for the cytotoxicity values is ChEMBL document CHEMBL3507680, “University of Dundee, Gates Library screen for HepG2 cell viability”.

Molecules are shown by their SMILES.

The data set is described as follows: Human HepG2 cell viability assay in 384 well format. The data set is classed as toxicity, cell-based. More on the design: dose 125 nL, time 70.5 hour; cytotoxicity at 70.5 h: concentration not given beside the values. Particulars: HepG2 cells, read-out: Inhibition.
As for `O=S(=O)(NCC1COc2ccccc2C1)N1CCCC1` (stereo not drawn), the cytotoxicity at 70.5 h was -2.58%.

For `COCc1cc(C[C@@H]2CC[C@H](O)[C@@H](CN(CC(C)C)CC(C)C)O2)no1`, the cytotoxicity at 70.5 h is -0.301%.

`Cc1cc(O)cc2c(=O)oc(CC(C)O)cc12` (stereo not drawn): the cytotoxicity at 70.5 h was -6.88%.

Consider `O=C1[C@@H]2CCN(CC3CC3)C[C@@H]2OCCN1c1cccnc1`, for which the cytotoxicity at 70.5 h came to 6.28%.

In the case of `COc1ccc(F)c(CN2CCC(c3cc(O)nc(C)n3)C2)c1` (stereo not drawn), the cytotoxicity at 70.5 h is 32.2%.

On to `COCCO[C@H]1CCN(C(=O)c2ccoc2C)[C@H]1Cc1cnn(C)c1`, for which the cytotoxicity at 70.5 h is -114%.

For `Cc1cccc(N2CC[C@H]3[C@H](CO[C@@H]3CN(C)Cc3ccco3)C2)n1`, the cytotoxicity at 70.5 h stood at 2.69%.

Regarding `CC(C#N)CNC(=O)Nc1ccc(-c2ccc[nH]2)cc1` (stereo not drawn), the cytotoxicity at 70.5 h was -0.22%.

Take `O=C(NCc1ccc(Br)cc1)NCC1CCOC1` (stereo not drawn): the cytotoxicity at 70.5 h was -10.4%.

`Cc1ncc(CN2CCc3c(nc(-c4ccccn4)[nH]c3=O)C2)n1C`: the cytotoxicity at 70.5 h was -8.75%.

Turning to `CN1N=C(C(=O)N2CCCCC2)S(=O)(=O)c2ccccc21`, the cytotoxicity at 70.5 h amounted to 1.74%.

`COC(=O)CCC(=O)NC(C)Cc1ccccc1Br` (stereo not drawn): the cytotoxicity at 70.5 h is -4.19%.

`Cc1cc(C(=O)N(C)S(=O)(=O)C(C)C)ccc1F`: the cytotoxicity at 70.5 h was -4.29%.

For the molecule `CSc1ccsc1C(=O)NC(Cc1ccccc1)C(N)=O` (stereo not drawn), the cytotoxicity at 70.5 h is -1.87%.

Consider `C[C@]1(O)CN(Cc2cscn2)CC[C@@H]1Oc1cccc(F)c1`, for which the cytotoxicity at 70.5 h was -3.07%.

Consider `Cc1ccc(-c2nc(CN3CCn4c(nnc4C4CC4)C3)no2)cc1`, for which the cytotoxicity at 70.5 h turned out to be 10.2%.

Turning to `Cc1ccccc1CN(C)C(=O)CN1CCCCC1Cn1cncn1` (stereo not drawn), the cytotoxicity at 70.5 h is -7.31%.

Turning to `Cc1nc2ccc(-n3ncnc3[C@@H]3CCCN3S(C)(=O)=O)cc2s1`, the cytotoxicity at 70.5 h amounted to 12.3%.

Turning to `O=C(C1CCOC1)N1CCc2ncnc(-c3cccnc3)c2CC1` (stereo not drawn), the cytotoxicity at 70.5 h came to 15.9%.

On to `CCOCCCNc1nc(CS(=O)(=O)c2ccccc2)cs1`, for which the cytotoxicity at 70.5 h is -6.56%.

Turning to `Cc1n[nH]c(C)c1NC(=O)CN1CCc2c(nc(C3CC3)n2C)C1`, the cytotoxicity at 70.5 h amounted to 17.7%.

Regarding `CC(C)NC(=O)c1cnc(Sc2nccn2C)c(Cl)c1`, the cytotoxicity at 70.5 h was determined as 9.84%.

Take `CSCCC(=O)N1CCCC1c1ccsc1` (stereo not drawn): the cytotoxicity at 70.5 h came out at 13.3%.

Turning to `Cc1nc(CNC(=O)NC(C)c2ccc3c(c2)OCCCO3)cs1` (stereo not drawn), the cytotoxicity at 70.5 h is -0.884%.

Regarding `CCOc1ccc(CN2CCC3(CC2)CNC(=O)C3)cn1`, the cytotoxicity at 70.5 h is -1.37%.

`CC(C)CCN1CCc2[nH]nc(C(=O)N3CC=CC3)c2C1`: the cytotoxicity at 70.5 h was -6.59%.

In the case of `COc1ccc(Cl)cc1NC(=O)CCC1CCCN(Cc2ncon2)C1` (stereo not drawn), the cytotoxicity at 70.5 h was -1.15%.

For the molecule `Cc1cnn(CCNCc2c(C)nn(CCO)c2C)c1`, the cytotoxicity at 70.5 h amounted to 2.83%.

Regarding `Cc1cn2c(n1)CCC(NC(=O)CNS(C)(=O)=O)C2` (stereo not drawn), the cytotoxicity at 70.5 h was -4.61%.

In the case of `Cc1nc(CNC2CC(=O)N(CCc3cccc(Cl)c3)C2)c[nH]1` (stereo not drawn), the cytotoxicity at 70.5 h is -5.42%.

Turning to `CS(=O)(=O)N1CC[C@H]2O[C@@H](C(=O)NCc3ccco3)CC[C@H]21`, the cytotoxicity at 70.5 h was -12%.

In the case of `COC(=O)CN1CCCN(C(=O)CCOc2cccc(C)c2C)CC1`, the cytotoxicity at 70.5 h was -5.13%.

On to `CC(C)c1cc(CNC(=O)NCc2cccc(N3CC=CC3)c2)on1`, for which the cytotoxicity at 70.5 h was -3.2%.

Turning to `O=C([C@H]1C[C@H]2OCC[C@H]2N(Cc2ccncc2)C1)N1CCCCO1`, the cytotoxicity at 70.5 h was -0.173%.

Consider `Cc1ccc(CN2CCC3(CC2)CCN(Cc2ccoc2)CC3)cc1`, for which the cytotoxicity at 70.5 h is -5.46%.

On to `O=S(=O)(N[C@@H]1CCO[C@]2(CCN(CC3CCOCC3)C2)C1)C1CC1`, for which the cytotoxicity at 70.5 h is -8.9%.

Regarding `Cc1ccc(NC(=O)N2CCOC(C)(c3cnn(C)c3)C2)c(C)c1` (stereo not drawn), the cytotoxicity at 70.5 h is -3.64%.

`Cc1nnc(SC2CCN(c3sccc3C#N)C2=O)[nH]1` (stereo not drawn): the cytotoxicity at 70.5 h is -9.17%.

As for `Cc1c2c(C(F)F)cc(SCC(=O)O)nc2nn1C`, the cytotoxicity at 70.5 h is -2.86%.

`Cn1cc(CNC2CCc3ncnn3C2)c(-c2cccnc2)n1` (stereo not drawn): the cytotoxicity at 70.5 h was -5.95%.

Turning to `CN(c1ncc(C(N)=O)cc1Cl)C1CCC(c2ccccc2)CC1` (stereo not drawn), the cytotoxicity at 70.5 h is -3.58%.

On to `CCCc1nnsc1C(=O)N1CCN(CC(O)C2CC2)CC1` (stereo not drawn), for which the cytotoxicity at 70.5 h was 14.6%.

For `Cc1ccsc1CN(c1nc(CCN)nc2ccccc12)C1CC1`, the cytotoxicity at 70.5 h came out at 10.4%.

For `CC(=O)N1CC[C@@]2(O)CCCC[C@H]2[C@@H]1c1ccccc1`, the cytotoxicity at 70.5 h is -0.54%.

In the case of `O=C(C1CC1)N1CCCC1c1nnc2n1CCCCC2` (stereo not drawn), the cytotoxicity at 70.5 h amounted to 0.772%.

For the molecule `CNCc1n[nH]c(=O)n1-c1cccc(Cl)c1Cl`, the cytotoxicity at 70.5 h is -8.26%.

With `CC(C)(C)CCNc1nccc(-c2c[nH][nH]c2=O)n1`, the cytotoxicity at 70.5 h is -4.19%.

On to `OCCn1nccc1C1CCN(Cc2nc(C3CC3)no2)CC1`, for which the cytotoxicity at 70.5 h is -1.33%.

On to `O=C(CCc1ccsc1)N1CCC(n2cc(CO)nn2)CC1`, for which the cytotoxicity at 70.5 h was -13.1%.

Regarding `CC(C)Oc1ccccc1CNC(=O)N(C)C(C)CS(C)(=O)=O` (stereo not drawn), the cytotoxicity at 70.5 h stood at 16.1%.

As to `COC(=O)c1cccc(C(=O)N(CCC#N)CC(C)(C)C)c1`, the cytotoxicity at 70.5 h came out at 1.22%.

For `CCN(C(=O)CN1CCCN(c2nc(C)ns2)CC1)C1CC1`, the cytotoxicity at 70.5 h was -3.69%.

As to `COc1ccc(CN2CCC3(CC2)CCN(CC2CC2)C3=O)cc1`, the cytotoxicity at 70.5 h is -14.4%.

As to `CC(=O)N[C@@H]1CN(C(=O)c2cccc(C)c2)C[C@H]1O`, the cytotoxicity at 70.5 h is -8.6%.

For the molecule `CC(C)(C)C(=O)N1CCN(CCOc2cccc(C#N)c2)CC1`, the cytotoxicity at 70.5 h is -5.91%.

Take `O=C(NCc1ccccc1CO)C1COc2ccccc21` (stereo not drawn): the cytotoxicity at 70.5 h is -0.572%.

Regarding `COc1cccc2ccc(N3CCC(O)(C(=O)O)CC3)nc12`, the cytotoxicity at 70.5 h was -16.9%.

For `O=C(CCC(=O)Nc1ccccc1)NCC(=O)c1ccc(F)cc1F`, the cytotoxicity at 70.5 h worked out at 5.75%.

As for `Cc1ccccc1N1CCN(CCS(=O)(=O)c2ccc(Br)cc2)CC1`, the cytotoxicity at 70.5 h worked out at 16%.

On to `CNC(=O)C1CN(C)CCN(C(=O)CCn2nnc3ccccc32)C1` (stereo not drawn), for which the cytotoxicity at 70.5 h is 0.266%.

On to `CC(C)CS(=O)(=O)N1C[C@H]2C[C@H](C(=O)Nc3cccnc3)[C@@H](C1)O2`, for which the cytotoxicity at 70.5 h is -6.34%.

`Cc1cccc(CN2C(=O)C[C@@H]3[C@@H]2CCN3Cc2ccsc2)n1`: the cytotoxicity at 70.5 h is -8.36%.

On to `COCc1ncc(CN2CCC(Oc3ccccc3OC)CC2)cn1`, for which the cytotoxicity at 70.5 h is -10.9%.

As to `O=C(NCCC(=O)N1CCCCCC1)c1c(O)cc(F)cc1F`, the cytotoxicity at 70.5 h is 9.05%.

Consider `Cc1ccc(-c2nnc(CN3CCc4nn(C)c(=O)cc4C3)o2)cc1`, for which the cytotoxicity at 70.5 h turned out to be 3.35%.

For the molecule `CCOc1nnc(CN(CC)CC(=O)NC(C)(C)C)s1`, the cytotoxicity at 70.5 h came out at 10.3%.

As to `Cc1nnc(N2CC[C@H]3C[C@@H](C(=O)N4CCCC4)O[C@H]3C2)s1`, the cytotoxicity at 70.5 h came to 12.6%.

`COc1cc(N2CCC3(CCCN3Cc3cnn(C)c3)CC2)ncn1`: the cytotoxicity at 70.5 h was -3.32%.

In the case of `O=C(NCC1CCOCC1)[C@@H]1C[C@@H]2[C@@H](CCN2Cc2nccs2)O1`, the cytotoxicity at 70.5 h is -12.1%.

With `CN(C)C(=O)N1CCN(Cc2nnc(C(C)(C)C)o2)CC1`, the cytotoxicity at 70.5 h was -4.6%.

For the molecule `O=C(c1cccc(F)c1)N1C[C@@H](CN2CCCCC2)[C@@H](CO)C1`, the cytotoxicity at 70.5 h is -7.48%.

In the case of `CN(C)S(=O)(=O)c1ccc(-c2nc(C#N)c(NC3CCCCC3)o2)o1`, the cytotoxicity at 70.5 h is -9.49%.

Regarding `c1cc(CN2CCCC2c2noc(C3CC3)n2)on1` (stereo not drawn), the cytotoxicity at 70.5 h is -15.8%.

Turning to `COC(=O)c1ccc(C(=O)N2CCc3c(ncn3C3CC3)C2)cc1`, the cytotoxicity at 70.5 h was -5.37%.

As to `CN(C)C(=O)N1CCc2c(CNc3ncccn3)cncc2C1`, the cytotoxicity at 70.5 h was -2.83%.

For `CC1(C(=O)NCc2cccnc2Oc2ccc(F)c(F)c2)CCCNC1` (stereo not drawn), the cytotoxicity at 70.5 h was found to be 8.1%.

On to `c1cnn(CC2CCCN2c2ncnc3c2CCC3)c1` (stereo not drawn), for which the cytotoxicity at 70.5 h is 4.07%.

As to `CCCN1CCCn2c(nc(CNC(=O)c3ccsc3)cc2=O)C1`, the cytotoxicity at 70.5 h was -3.68%.

Consider `CCn1cnnc1CNC(=O)N1CCCN(C(C)=O)CC1`, for which the cytotoxicity at 70.5 h was -11.8%.

For the molecule `c1cncc(CO[C@H]2CO[C@@]3(CCN(Cc4ccoc4)C3)C2)c1`, the cytotoxicity at 70.5 h was -20.1%.

Regarding `COc1ccccc1OCC(=O)NS(=O)(=O)c1ccc(C)s1`, the cytotoxicity at 70.5 h was -4.78%.

Take `O=C1CC2(CCN(Cc3ccoc3)CC2)CN1Cc1cc(F)cc(F)c1`: the cytotoxicity at 70.5 h was -6.12%.

`CCOCCN1CCC(c2cncc(C)n2)CC1`: the cytotoxicity at 70.5 h is -1.63%.

Turning to `COc1ccc(CN(C)C(=O)NCc2c(C)cc(C)nc2OC)cc1`, the cytotoxicity at 70.5 h was -5.78%.

As for `CNC(=O)C1(Cc2cc(C(C)C)no2)CCN(Cc2cccnc2)C1` (stereo not drawn), the cytotoxicity at 70.5 h was -5.78%.

Consider `CSCCC(=O)N1CCCC(c2ncc[nH]2)C1` (stereo not drawn), for which the cytotoxicity at 70.5 h is -21.7%.

For the molecule `COc1ccc(-c2ncccc2C(=O)N2C[C@H]3CC[C@@H]2C3)cn1`, the cytotoxicity at 70.5 h was -2.51%.

As to `Cc1cc(C)n(CC2CCCN2CC(=O)N(C)CCC#N)n1` (stereo not drawn), the cytotoxicity at 70.5 h is -8.11%.

With `CCCn1nc(C)c(CNC(=O)C2COc3ccc(OC)cc3C2)c1C` (stereo not drawn), the cytotoxicity at 70.5 h is -2.92%.

In the case of `O=C(NCC(O)c1ccoc1)Nc1c(F)cccc1F` (stereo not drawn), the cytotoxicity at 70.5 h was -9.03%.

On to `CN(Cc1cc2cc(F)ccc2[nH]1)C(=O)C1CC(=O)N(C(C)(C)C)C1` (stereo not drawn), for which the cytotoxicity at 70.5 h is -1.21%.

With `Cc1csc(N2CCN(C(=O)C(C(C)C)n3cncn3)CC2)n1` (stereo not drawn), the cytotoxicity at 70.5 h is -1.51%.

Take `CC(CCc1ccc(F)c(F)c1)NS(=O)(=O)Cc1ccon1` (stereo not drawn): the cytotoxicity at 70.5 h turned out to be 20.5%.

Take `CC(C)c1cc(C2CCN(Cc3cc(F)cc(F)c3)CC2)[nH]n1`: the cytotoxicity at 70.5 h is -1.12%.

As for `CSCCC(=O)N1CCN(CC(O)C(C)(C)C)CC1` (stereo not drawn), the cytotoxicity at 70.5 h was found to be 24.8%.

Take `COc1ncccc1CN1C[C@@H]2COC[C@]2(COCC(=O)N(C)C)C1`: the cytotoxicity at 70.5 h was -6.1%.

`COc1cc(C)nc(N2CCN(Cc3nccn3C)CC2)n1`: the cytotoxicity at 70.5 h stood at 0.0501%.

Take `CN1CC(=O)N(c2cccc(F)c2)CC12CCN(Cc1ccsc1)C2` (stereo not drawn): the cytotoxicity at 70.5 h was -5.22%.
